Test results published in patent US6337322B1, “Preventives and remedies for intestinal mucosal disorder” (Meiji Milk Products Co., Ltd., priority 1998, dated 2002).
Where a name gives a salt, the structure may show the parent alone.

How the values were obtained:
[1] = tested on: primarily cultured liver cells; details: cited from earlier work
[2] = tested on: keratinocyte; details: cited from earlier work
[3] = Test Example 1: body weight of fasting rats; format: in vivo, rat; details: 48 hours; for Weight ± standard deviation, Final: fasting rats, free ingestion
Description: Six-week-old male Sprague-Dawley rats (purchased from Nippon Charles River) were employed in the test. Water and solid feed (CRF-1, product of Oriental Yeast) were freely ingested by the rats. […] The test was carried out for 48 hours. For the fasting groups, solid feed was removed in the morning of the day on which the test was initiated. During the 48 hours, solid feed, water, and an ethanolamine hydrochloride-containing aqueous solution were freely ingested by the rats in the solid feed ingestion group, the water ingestion fasting group, and the ethanolamine hydrochloride ingestion fasting group, respectively. The amount of water ingested during the 48 hours was measured, and the amount of ingested ethanolamine per rat was calculated on the basis of the amount of water (Table 2). For each group, the rats were weighed at the time of test initiation and the time of test completion, in order to obtain the average weight (Table 1). In the fasting groups, any changes in the weight of the rats that could be attributed to ethanolamine ingestion were not observed.

[4] = tested on: villous epithelium of the duodenum; assay: Test Example 2: duodenal disorder induced by four-day fasting and intraperitoneal 5% dextrose, HE-stained tissue sections; format: in vivo, rat; details: 250 mg/5 mL/kg orally twice a day, first to third fasting day, versus control group
Description: Nine-week-old CD (SD) IGS male rats were employed in the test. The rats were kept in individual fasting cages, and the day after initiation of fasting was regarded as the first fasting day. Fasting (i.e., provision of no food and no water) was carried out for four days, and on the fourth day the rats were sacrificed through […]. A 5% dextrose solution was intraperitoneally administered to each rat in an amount of 10 mL on the basis of body weight (100 g) from the first fasting day to the third fasting day, to thereby induce disorders. The rats were divided into two groups: a control group and a drug administration group. To the rats of the control group, sterile water was orally administered in an amount of 0.5 mL per 100 g of body weight twice a day, at 10:00 AM and 4:00 PM. To the rats of the drug administration group, ethanolamine hydrochloride was administered in an amount of 250 mg/5 mL/kg twice a day, at 10:00 AM and 4:00 PM. The administration was carried out from the first fasting day to the third fasting day. On the fourth fasting day, the rats were sacrificed through cervical dislocation, and the stomach and the duodenum were removed from each rat. The inside of the intestinal tract was washed with saline. Subsequently, the pylorus was ligated and the tract was also ligated at a position 4 cm from the pylorus. […]

[5] = tested on: duodenal epithelial mucosa tissue; assay: Test Example 1: atrophy of duodenal epithelial mucosa caused by 48-hour fasting, PAS-stained tissue sections; format: in vivo, rat; details: for Density of secretion granules / Intercellular space / Size of cell / Size of nucleus: fasting rats, 48 hours
Description: Six-week-old male Sprague-Dawley rats (purchased from Nippon Charles River) were employed in the test. Water and solid feed (CRF-1, product of Oriental Yeast) were freely ingested by the rats. […] The test was carried out for 48 hours. For the fasting groups, solid feed was removed in the morning of the day on which the test was initiated. During the 48 hours, solid feed, water, and an ethanolamine hydrochloride-containing aqueous solution were freely ingested by the rats in the solid feed ingestion group, the water ingestion fasting group, and the ethanolamine hydrochloride ingestion fasting group, respectively. The amount of water ingested during the 48 hours was measured, and the amount of ingested ethanolamine per rat was calculated on the basis of the amount of water (Table 2). […] The small intestine was excised from each rat, and a duodenal portion (size: 1 cm in length) was removed from a position 5 cm in the direction of the anus away from the pylorus. The removed portion was fixed in phosphate buffered formalin. After 24-hour fixation, the duodenal portion was embedded in paraffin using a conventional technique, to thereby prepare a tissue section. The thus-prepared tissue sample was subjected to PAS staining, and then observed.

[6] = 1 μM Etn in water (6 μg/kg/day)
[7] = 10 μM Etn in water (34 μg/kg/day)
[8] = 100 μM Etn in water (330 μg/kg/day)
[9] = 1000 μM Etn in water (4500 μg/kg/day)

Q: For `NCCO` [ethanolamine], which “proliferation of liver cells” value ([1]; in the presence of a cell growth factor such as EGF, ethanolamine 10-100 μM) is on record?
A: The value was “synergistically promoted”.

Q: What about the proliferation-promoting activity ([1]; only ethanolamine added, no cell growth factor) of the same compound?
A: Its proliferation-promoting activity is “not observed”.

Q: And the “proliferation of epithelial cells” value [2]?
A: The value was “promote proliferation”.

Q: What about the “changes in the weight of the rats that could be attributed to ethanolamine ingestion” value ([3]; fasting groups) of the same compound?
A: The value was “not observed”.

Q: And the cellular infiltration [4]?
A: Its cellular infiltration is “only slight”.

Q: What about the “necrosis of the villous epithelium” value [4] of the same compound?
A: Its value is “remarkably suppressed”.

Q: With `NCCO` [ethanolamine hydrochloride] as the compound, how does the “Weight ± standard deviation, Final” value ([3]; 1 μM Etn in water) read?
A: The value was 208.2 ± 3.1 g.

Q: What about the “Weight ± standard deviation, Final” value ([3]; 10 μM Etn in water) of the same compound?
A: The value was 209.4 ± 7.4 g.

Q: And the “Weight ± standard deviation, Final” value ([3]; 100 μM Etn in water)?
A: The value was 210.4 ± 3.9 g.

Q: And the “Weight ± standard deviation, Final” value ([3]; 1000 μM Etn in water)?
A: Its value is 213.1 ± 6.7 g.

Q: What about the “position of nuclei in cells” value ([5]; 100 μM ingestion fasting group) of the same compound?
A: Its value is “situated centrally”.

Q: And the “enlarged intercellular spaces and cell atrophy” value ([5]; 100 μM ingestion fasting group, compared with solid feed ingestion group)?
A: The value was “not observed”.

Q: What about the cell nuclei size ([5]; 100 μM ingestion fasting group, compared with water and 1 or 10 μM fasting groups) of the same compound?
A: Its cell nuclei size is “considerably enlarged”.

Q: And the “PAS staining of mucus-secreting granules in goblet cells” value ([5]; 100 μM ingestion fasting group, compared with water ingestion fasting group)?
A: Its value is “heavily stained”.

Q: And the cell nuclei size ([5]; 1 or 10 μM ingestion fasting groups)?
A: Its cell nuclei size is “reduced in size”.

Q: And the “Density of secretion granules” value [5, 6]?
A: Its value is “Low”.

Q: What about the Intercellular space [5, 6] of the same compound?
A: Its Intercellular space is “Large”.

Q: What about the Size of cell [5, 6] of the same compound?
A: The Size of cell was “Small”.

Q: What about the Size of nucleus [5, 6] of the same compound?
A: The Size of nucleus was “Small”.

Q: What about the “Density of secretion granules” value [5, 7] of the same compound?
A: Its value is “Low”.

Q: What about the Intercellular space [5, 7] of the same compound?
A: The Intercellular space was “Large”.

Q: And the Size of cell [5, 7]?
A: Its Size of cell is “Small”.

Q: What about the Size of nucleus [5, 7] of the same compound?
A: Its Size of nucleus is “Small”.

Q: And the “Density of secretion granules” value [5, 8]?
A: The value was “High”.

Q: And the Intercellular space [5, 8]?
A: The Intercellular space was “None”.

Q: What about the Size of cell [5, 8] of the same compound?
A: Its Size of cell is “Large”.

Q: What about the Size of nucleus [5, 8] of the same compound?
A: Its Size of nucleus is “Large”.

Q: And the “Density of secretion granules” value [5, 9]?
A: Its value is “High”.

Q: What about the Intercellular space [5, 9] of the same compound?
A: The Intercellular space was “None”.

Q: What about the Size of cell [5, 9] of the same compound?
A: The Size of cell was “Large”.

Q: And the Size of nucleus [5, 9]?
A: Its Size of nucleus is “Large”.

Q: What about the “prevention and treatment of atrophy of the small intestine caused by fasting” value ([5]; overall conclusion of Test Example 1) of the same compound?
A: The value was “effective”.
